Legend:
[1] = test system: EpiVaginal tissues; experiment: macrophage infiltration in treated EpiVaginal tissues (barrier function), four hours in the presence of TNF-α; type: cell-based; conditions: vs. 28% into the untreated tissue; macrophages cultured with the tissue for four hours in the presence of TNF-α
Source text: FIG. 1 is a graph showing macrophage infiltration in hormone (estrogen) and L759,633-treated EpiVaginal tissues. L759,633 had the most striking effect on macrophage infiltration: only 6% of cells infiltrated into the tissue past 90 μm (vs. 28% into the untreated tissue, p<0.006 ANOVA). […] U=untreated control; E=estradiol; P=progesterone; and IMG=the cannabinoid L759,633.
Many of the above-noted genes are differentially regulated by estradiol in menopausal tissue. […] With respect to the barrier function, only 6% of macrophages which had been cultured with the tissue for four hours in the presence of TNF-α were capable of infiltrating into the tissue past 90 um (vs. 28% into the untreated tissue, p<0.006 ANOVA). […] This would indicate that the increased gene expression of the proteins involved with cross-linking of the keratin fibers, filagrins and desmosomal cadherins are all contributing to the fortification of the vaginal mucosa which would prevent the infiltration of pathogens and prevent the loss of solutes and water from within the tissue.

[2] = test system: vaginal tissue construct; experiment: microarray analysis of differential gene expression (Affymetrix Human Gene 1.0 ST arrays), tissues treated for seven days via culture medium; type: cell-based; conditions: for VEGFA Fold Change: gene vascular endothelial growth factor A
Source text: The data from the Affymetrix Human Gene 1.0 ST arrays were normalized using the Robust Multiarray Average (RMA) algorithm and a Chip Definition File (CDF) that maps the probes on the array to unique Entrez Gene identifiers. The result is a matrix in which each column corresponds to a sample. The expression values are log 2-transformed by default.
By using a fold change >1.5, an analysis of differentially expressed genes was done to identify those genes which were involved in the cornified envelope, keratinocyte differentiation, cell differentiation, epidermis development, epithelial cell differentiation, junctional proteins and signaling, immune response and innate immune response.

With C[C@]12CC[C@@H]3c4ccc(O)cc4CC[C@H]3[C@@H]1CC[C@@H]2O [Estradiol, 17β-estradiol, reference compound] the “macrophages infiltrated into the tissue past 90 μm” value [1] was 16%, the “SPRR2D Fold Change” value [2] was 2.793 fold and the “WFDC12 Fold Change” value [2] was 3.103 fold. The “CD74 Expr Fold Change” value ([2]; gene CD74 molecule) was −1.89 fold, the “CD244 Expr Fold Change” value ([2]; gene CD244 molecule) was 2.355 fold and the “CDSN Fold Change” value ([2]; gene Corneodesmosin) was 3.011 fold. The “CCL28 Expr Fold Change” value ([2]; gene C−C motif chemokine ligand 28) was −1.948 fold, the “FYB1 Expr Fold Change” value ([2]; gene FYN binding protein 1) was −2.225 fold and the “IFNE Fold Change” value ([2]; gene Interferon Epsilon) was 2.1 fold. For the same molecule, the “NLRP10 Fold Change” value ([2]; gene NLR family pyrin domain containing 10) was 4.199 fold, the “RNAse7 Fold Change” value ([2]; gene RNAse family) was 3.387 fold and the “TNFRSF10C Expr Fold Change” value ([2]; gene TNF receptor superfamily member 10c) was −2.162 fold. For the same molecule, the “TGM1 Fold Change” value ([2]; gene Transglutaminase 1) was 1.406 fold, the “TGM3 Fold Change” value ([2]; gene Transglutaminase 3) was 15.681 fold and the “TGM5 Fold Change” value ([2]; gene Transglutaminase 5) was 1.135 fold. For the same molecule, the “VTCN1 Expr Fold Change” value ([2]; gene V-set domain containing T cell activation inhibitor 1) was −2.364 fold, the “WFDC5 Fold Change” value ([2]; gene WAP four-disulfide core domain 5) was 1.2 fold and the “ALOX12B Fold Change” value ([2]; gene arachidonate 12-lipoxygenase, 12R type) was 2.207 fold. The “ALOXE3 Fold Change” value ([2]; gene arachidonate lipoxygenase 3) was 1.371 fold, the “CSF2RB Expr Fold Change” value ([2]; gene colony stimulating factor 2 receptor beta common subunit) was 1.517 fold and the “CNFN Fold Change” value ([2]; gene cornifelin) was 1.3 fold. For the same molecule, the “DMKN Fold Change” value ([2]; gene dermokine) was 2.428 fold, the “DCS3 Fold Change” value ([2]; gene descmocollin 3) was 1.2 fold and the “DSC1 Fold Change” value ([2]; gene desmocollin 1) was 1.673 fold. The “DSC2 Fold Change” value ([2]; gene desmocollin 2) was 1.3 fold, the “DSG1 Fold Change” value ([2]; gene desmoglein 1) was 4.964 fold and the “FLG Fold Change” value ([2]; gene filaggrin) was 3.212 fold. For the same molecule, the “FLG2 Fold Change” value ([2]; gene filaggrin family member 2) was 2.766 fold, the “KPRP Fold Change” value ([2]; gene human keratinocyte proline rich protein) was 5.557 fold and the “IL23A Expr Fold Change” value ([2]; gene interleukin 23 subunit alpha) was 2.912 fold. For the same molecule, the “IL36A Expr Fold Change” value ([2]; gene interleukin 36 alpha) was 3.409 fold, the “IL36RN Expr Fold Change” value ([2]; gene interleukin 36 receptor antagonist) was 2.751 fold and the “KLK6 Fold Change” value ([2]; gene kallikrein related peptidase 6) was 2.769 fold. For the same molecule, the “KLK8 Fold Change” value ([2]; gene kallikrein related peptidase 8) was 1.831 fold, the “KLK10 Fold Change” value ([2]; gene kallikrein related peptidase 10) was 2.043 fold and the “KLK12 Fold Change” value ([2]; gene kallikrein related peptidase 12) was 4.018 fold. For the same molecule, the “KLK13 Fold Change” value ([2]; gene kallikrein related peptidase 13) was 4.626 fold, the “KRT1 Fold Change” value ([2]; gene keratin 1) was 1.949 fold and the “KRT2 Fold Change” value ([2]; gene keratin 2) was 1.214 fold. The “KRT20 Fold Change” value ([2]; gene keratin 20) was −3.702 fold, the “KRT23 Fold Change” value ([2]; gene keratin 23) was 1.891 fold and the “KRT24 Fold Change” value ([2]; gene keratin 24) was 1.673 fold. For the same molecule, the “KRTDAP Fold Change” value ([2]; gene keratinocyte differentiation associated protein) was 13.936 fold, the “LCE1A Fold Change” value ([2]; gene late cornified envelope 1A) was 1.307 fold and the “LCE1C Fold Change” value ([2]; gene late cornified envelope 1C) was 1.262 fold. For the same molecule, the “LCE1F Fold Change” value ([2]; gene late cornified envelope 1F) was 1.317 fold, the “LCE2A Fold Change” value ([2]; gene late cornified envelope 2A) was 2.026 fold and the “LCE2B Fold Change” value ([2]; gene late cornified envelope 2B) was 1.89 fold. The “LCE2C/LCE2D Fold Change” value ([2]; gene late cornified envelope 2D) was 1.903 fold, the “LCE5A Fold Change” value ([2]; gene late cornified envelope 5A) was 1.454 fold and the “LIPM Fold Change” value ([2]; gene lipase family member M) was 3.572 fold. The “LIPN Fold Change” value ([2]; gene lipase family member N) was 4.57 fold, the “LIPN1 Fold Change” value ([2]; gene lipin 1) was 2.831 fold and the “LOR Fold Change” value ([2]; gene loricrin) was 1.207 fold. The “HLA-DPA1 Expr Fold Change” value ([2]; gene major histocompatibility complex, class II, DP alpha 1) was −1.8 fold, the “HLA-DRA Expr Fold Change” value ([2]; gene major histocompatibility complex, class II, DR alpha) was −2.234 fold and the “HLA-DRB6 Expr Fold Change” value ([2]; gene major histocompatibility complex, class II, DR beta 6 (pseudogene)) was −2.5 fold. For the same molecule, the “MUCL1 Fold Change” value ([2]; gene mucin like 1) was 2.857 fold, the “PLA2G2F Fold Change” value ([2]; gene phospholipase A2 group IIF) was 1.824 fold and the “PLA2G3 Fold Change” value ([2]; gene phospholipase A2 group III) was 1.64 fold. The “PLA2G4D Fold Change” value ([2]; gene phospholipase A2 group IVD) was 2.046 fold, the “PLA2G4E Fold Change” value ([2]; gene phospholipase A2 group IVE) was 2.442 fold and the “PLA2G10 Fold Change” value ([2]; gene phospholipase A2 group X) was −2.948 fold. The “SERPINB12 Fold Change” value ([2]; gene serpin family B member 12) was 1.3 fold, the “SPRR2G Fold Change” value ([2]; gene small proline rich protein 2G) was 4.664 fold and the “SPRR4 Fold Change” value ([2]; gene small proline rich protein 4) was 2.669 fold. For the same molecule, the “SLC44A4 Fold Change” value ([2]; gene solute carrier family 44 member 4) was −1.8 fold, the “SBSN Fold Change” value ([2]; gene suprabasin) was 3.449 fold and the “TLR3 Expr Fold Change” value ([2]; gene toll like receptor 3) was −2.081 fold. For the same molecule, the “TRPV3 Fold Change” value ([2]; gene transient receptor potential cation channel subfamily V member 3) was 1.6 fold, the “VEGFA Fold Change” value [2] was 1.2 fold and the “VEGFA Fold Change” value ([2]; listed as estradiol) was 2.2 fold. The HLA-DMA expression ([2]; result in words) was “down-regulate” and the HLA-DMB expression ([2]; result in words) was “down-regulate”.
